Reference: US9301951B2 (Ardelyx, Inc., priority 2010, dated 2016)

How the values were obtained:
[1] = human absorption; cited from earlier work
[2] = Determination of compound Cmax and AUC in plasma after oral gavage; assay type: in vivo, rat; details: Sprague-Dawley rats, actual oral dose 3-15 mg/kg, 0.5-4 h
Method: Sprague-Dawley rats were orally gavaged with test article at a nominal dose of 2.5 or 10 mg/kg and blood was collected at 0.5, 1, 2 and 4 h. Blood samples were processed to plasma using K2EDTA as an anticoaglulant. Plasma samples were treated with acetonitrile containing an internal standard, precipitated proteins removed by centrifugation. Supernatants were analyzed by LC-MS/MS and compound concentrations were determined by interpolation from a standard curve prepared in plasma. All compounds were orally dosed at the dosage shown, and pharmacokinetic parameters determined.

AUC [2] | Cmax [2] | Compound | % FA [1]
 |  | Cc1cc(=O)n(-c2ccccc2)n1C [phenazone] | 97%
<30 ng·h/mL | <10 ng/mL | (S)-2-(5-(diethylamino)-2-(3-(27-oxo-2,5,8,11,14,17,20,23,30,33,36,39-dodecaoxa-42-thia-26-azatritetracontan-43-yl)benzamido)phenyl)-N-(1,2,3,4-tetrahydronaphthalen-1-yl)isonicotinamide [Example 157.1] | 
